| logP | Structure (SMILES) |
| --- | --- |
| 2.57 | CCNc1nc(N=[N+]=[N-])nc(NC(C)C)n1 |
| 1.5 | CCNc1nc(NC(C)(C)C)nc(=O)[nH]1 |
| 1.78 | CCC(C)Nc1nc(N)nc(Cl)n1 (centres undefined) |
| 0.83 | CCNc1nc(N)nc(OC)n1 |
| 1.87 | CNc1nc(NC)nc(NC(C)C)n1 |
| 1.93 | COc1nc(N)nc(NC(C)(C)C)n1 |
| -0.08 | CC(C)Nc1nc(N)[nH]c(=O)n1 |

Second part, the compound before the results:

| Structure (SMILES) | logP |
| --- | --- |
| COc1nc(NC(C)C)nc(NC(C)C)n1 | 2.6 |
| CCNc1nc(N)nc(=O)[nH]1 | -0.3 |
| O=c1[nH]c(=O)[nH]c(=O)[nH]1 | -0.47 |
| Nc1nc(N)nc(Cl)n1 | 0.11 |
| CCN(CC)c1nc(N)nc(Cl)n1 | 2.12 |
| Nc1nc(N)[nH]c(=O)n1 | -0.46 |
| Cc1nnc(-c2ccccc2)c(=O)n1N | 0.98 |
| Nc1nc(N)nc(NC2CC2)n1 | 0.05 |
| Nc1nc(N)nc(N)n1 | -0.4 |
| CCNc1nc(NCC)[nH]c(=O)n1 | 0.35 |
| CC(C)(C)Nc1nc(N)[nH]c(=O)n1 | 0.43 |
| CCNc1nc(NC(C)C)nc(=O)[nH]1 | 0.76 |

Reference: the SangsterLogP compilation
